How the values were obtained:
[1] = biological target: T1, human PPARα ligand binding domain (GST-PPARα-LBD) (Homo sapiens, UniProt Q07869); assay: in vitro PPARα/SRC-1 binding assay (GST-PPARα-LBD / SRC-Luc complex captured on glutathione-sepharose beads, luciferase readout)
T1 construct: made in house; host or cells: E. coli BL21(DE3)pLysS
T1 sequence (Q07869 164-468): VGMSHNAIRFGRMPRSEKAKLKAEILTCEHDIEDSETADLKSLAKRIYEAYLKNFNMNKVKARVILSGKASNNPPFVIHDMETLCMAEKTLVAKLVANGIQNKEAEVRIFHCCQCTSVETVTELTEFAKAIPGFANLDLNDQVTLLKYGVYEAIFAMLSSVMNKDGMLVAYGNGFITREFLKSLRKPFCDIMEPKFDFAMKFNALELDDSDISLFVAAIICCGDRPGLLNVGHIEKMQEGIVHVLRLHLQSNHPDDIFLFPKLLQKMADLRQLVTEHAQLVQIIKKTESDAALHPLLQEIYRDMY
T1 sequence (Q15788 631-763 partner limits assumed): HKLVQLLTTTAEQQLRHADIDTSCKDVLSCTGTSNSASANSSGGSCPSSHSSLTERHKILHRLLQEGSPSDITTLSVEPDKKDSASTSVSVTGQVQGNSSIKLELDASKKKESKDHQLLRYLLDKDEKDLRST
Source text: For this example, the peroxisome proliferator-activated receptor-α (PPARα) nuclear receptor was chosen. The PPAR LBD was expressed in bacteria as a GST fusion protein (GST-PPARα-LBD) for use in the assay (FIG. 1). Also chosen was a known PPARα coactivator, SRC-1 (Takeshita Endocrinology 137:3594-3597 (1996)). SRC-1 was expressed as a GST fusion protein also containing a firefly luciferase moiety (GST-SRC-Luc). The GST moiety was subsequently cleaved away from purified GST-SRC-1-Luc protein to yield a purified SRC-Luc protein (FIG. 1). A known PPARα ligand, GW2331, was also chosen for establishing the assay.
The GST-PPARα-LBD expression plasmid was prepared as follows: the human PPARα ligand binding domain including the hinge region (amino acids 164-468, accession #S74349) was PCR amplified from HepG2 first-strand cDNA using synthetic primers (SEQ ID:1 and SEQ ID:2) and native Taq polymerase. The primers were tagged with BamHI (5′) and NotI (3′) restriction sites to facilitate cloning. PCR fragments were cloned directly into pGEM®-T (Promega Corp), screened by diagnostic restriction digests, and confirmed by DNA sequence analysis. A combination of clones was used to generate a complete, error-free clone. The PPARα hinge/ligand binding domain clone was then transferred into pGEX-4T-3 (Amersham Pharmacia Biotech) as a BamH I/Not I fragment to create an in-frame fusion with GST. […]

[2] = biological target: T2, human PPARβ ligand binding domain (GST-PPARβ-LBD) (Homo sapiens, UniProt Q03181); assay: in vitro PPARβ/SRC-1 binding assay (GST-PPARβ-LBD / SRC-Luc complex captured on glutathione-sepharose beads, luciferase readout); conditions: each ligand at final 5 μM; FIG. 3
T2 construct: made in house
T2 sequence (Q03181 136-441): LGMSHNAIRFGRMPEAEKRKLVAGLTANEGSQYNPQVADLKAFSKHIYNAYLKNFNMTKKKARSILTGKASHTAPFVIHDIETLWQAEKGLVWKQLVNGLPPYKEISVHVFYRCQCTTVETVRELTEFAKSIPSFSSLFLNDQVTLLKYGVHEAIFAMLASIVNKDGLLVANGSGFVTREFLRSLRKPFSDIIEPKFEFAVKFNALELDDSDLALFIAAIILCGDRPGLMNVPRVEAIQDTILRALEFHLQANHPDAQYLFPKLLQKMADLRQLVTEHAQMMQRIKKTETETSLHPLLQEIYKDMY
T2 sequence (Q15788 631-763 partner limits assumed): T1 sequence (Q15788 631-763 partner limits assumed)

In the case of `CCCCCCCN(CCc1ccc(OC(C)(CC)C(=O)O)cc1)C(=O)Nc1ccc(F)cc1F` (stereo not drawn) [GW2331, spec/2-(4-[2-(3[2,4-Difluorophenyl]-1-heptylureido)ethyl]phenoxy)-2-methylbutyric acid], the “binding of ligand by GST-PPARα-LBD (luciferase activity of the isolated complex with SRC-Luc)” value ([1]; each ligand at final 5 μM, FIG. 3) was “efficiently”, the “amount of GST-PPARα-LBD/GW2331 ligand/SRC-Luc complex (luciferase activity, light units) as the ligand concentration was increased” value ([1]; ligand at 0.001, 0.01, 0.1, 1.0, 10.0 and 100.0 μM, 2 h at 4° C., FIG. 2) was “also increased” and the “binding of ligand by GST-PPARβ-LBD (luciferase activity of the isolated complex with SRC-Luc)” value [2] was “roughly equal efficiency”.
